From the supplement of paper PMC10307832

Tests used:
Test in all cases: relative viability (nuclei count vs DMSO), 5 days (fraction); higher = more cells survive
Afatinib + OSI-027 = compound: CN(C)C/C=C/C(=O)Nc1cc2c(Nc3ccc(F)c(Cl)c3)ncnc2cc1O[C@H]1CCOC1 [Afatinib] + COc1cccc2cc(-c3nc([C@H]4CC[C@H](C(=O)O)CC4)n4ncnc(N)c34)[nH]c12 [OSI-027] (partner 0.5 µM)
How it was run: (§1)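 Nuclei were stained with Hoechst during a one-step fixation (final 0.05% Triton X-100, 1% formaldehyde, 1 ug/ml Hoechst) carried out 5 days after dosing, then counted on 4× images. The cells, lung cancer lines in 1536-well plates, had been dosed by pin tool the day after seeding with one drug alone or a fixed anchor-drug dose plus five library-drug doses (not always all listed) in √10 steps. Relative viability is the nuclei count in treated wells divided by that in vehicle wells, and each value is the median of duplicate plates.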

Afatinib + Lapatinib = compound: CN(C)C/C=C/C(=O)Nc1cc2c(Nc3ccc(F)c(Cl)c3)ncnc2cc1O[C@H]1CCOC1 [Afatinib] + CS(=O)(=O)CCNCc1ccc(-c2ccc3ncnc(Nc4ccc(OCc5cccc(F)c5)c(Cl)c4)c3c2)o1 [Lapatinib] (partner 2 µM)
How it was run: as §1

Afatinib + Linsitinib = compound: CN(C)C/C=C/C(=O)Nc1cc2c(Nc3ccc(F)c(Cl)c3)ncnc2cc1O[C@H]1CCOC1 [Afatinib] + C[C@]1(O)C[C@@H](c2nc(-c3ccc4ccc(-c5ccccc5)nc4c3)c3c(N)nccn32)C1 [Linsitinib] (partner 1 µM)
How it was run: as §1

Afatinib + Alpelisib = compound: CN(C)C/C=C/C(=O)Nc1cc2c(Nc3ccc(F)c(Cl)c3)ncnc2cc1O[C@H]1CCOC1 [Afatinib] + Cc1nc(NC(=O)N2CCC[C@H]2C(N)=O)sc1-c1ccnc(C(C)(C)C(F)(F)F)c1 [Alpelisib] (partner 2 µM)
How it was run: as §1

| Cell Line | relative viability (Afatinib + OSI-027; first compound 0.005 µM) | relative viability (Afatinib + OSI-027; first compound 0.01581 µM) | relative viability (Afatinib + OSI-027; first compound 0.05 µM) | relative viability (Afatinib + OSI-027; first compound 0.1581 µM) | relative viability (Afatinib + OSI-027; first compound 0.5 µM) | relative viability (Afatinib + Lapatinib; first compound 0.005 µM) | relative viability (Afatinib + Lapatinib; first compound 0.01581 µM) | relative viability (Afatinib + Lapatinib; first compound 0.05 µM) | relative viability (Afatinib + Lapatinib; first compound 0.1581 µM) | relative viability (Afatinib + Lapatinib; first compound 0.5 µM) | relative viability (Afatinib + Linsitinib; first compound 0.005 µM) | relative viability (Afatinib + Linsitinib; first compound 0.01581 µM) | relative viability (Afatinib + Linsitinib; first compound 0.05 µM) | relative viability (Afatinib + Linsitinib; first compound 0.1581 µM) | relative viability (Afatinib + Linsitinib; first compound 0.5 µM) | relative viability (Afatinib + Alpelisib; first compound 0.005 µM) | relative viability (Afatinib + Alpelisib; first compound 0.01581 µM) | relative viability (Afatinib + Alpelisib; first compound 0.05 µM) | relative viability (Afatinib + Alpelisib; first compound 0.1581 µM) | relative viability (Afatinib + Alpelisib; first compound 0.5 µM) |
| --- | --- | --- | --- | --- | --- | --- | --- | --- | --- | --- | --- | --- | --- | --- | --- | --- | --- | --- | --- | --- |
| 201T | 0.7 | 0.642 | 0.722 | 0.62 | 0.653 | 1.07 | 1.04 | 0.904 | 1.01 | 1.08 | 1.06 | 0.986 | 0.909 | 0.86 | 0.897 | 1 | 0.961 | 0.922 | 0.918 | 0.935 |
| A549 |  |  |  |  |  | 0.974 | 0.979 | 1.01 | 0.893 | 0.997 | 0.608 | 0.435 | 0.533 | 0.433 | 0.467 | 0.629 | 0.632 | 0.631 | 0.61 | 0.642 |
| A-427 | 0.426 | 0.321 | 0.446 | 0.519 | 0.358 | 1.09 | 1.09 | 1.01 | 1.03 | 1.04 | 1.1 | 1.15 | 1.11 | 1.08 | 1.07 | 1.04 | 1.11 | 1.18 | 0.973 | 1.09 |
| ABC-1 | 0.475 | 0.315 | 0.453 | 0.429 | 0.405 | 1.15 | 1.16 | 1.32 | 0.932 | 1.05 | 0.851 | 0.647 | 0.788 | 0.466 | 0.584 | 1.26 | 0.856 | 0.947 | 0.931 | 0.988 |
| BEN | 0.326 | 0.283 | 0.297 | 0.299 | 0.298 | 0.7 | 0.694 | 0.832 | 0.705 | 0.804 | 0.988 | 0.875 | 1.01 | 0.895 | 0.962 | 1.25 | 1.07 | 1.18 | 1.06 | 1.1 |
| CAL-12T | 0.75 | 0.456 | 0.392 | 0.307 | 0.374 | 0.694 | 0.757 | 0.714 | 0.546 | 0.638 | 0.732 | 0.584 | 0.65 | 0.409 | 0.399 | 1.18 | 0.973 | 0.929 |  | 0.584 |
| COR-L23 | 0.941 | 0.829 | 0.755 | 0.739 | 0.78 | 1.22 | 0.916 | 0.877 | 0.933 | 1.11 | 0.874 | 0.894 | 0.883 | 0.825 | 0.848 | 0.922 | 0.728 | 0.935 | 0.685 | 0.752 |
| COR-L 105 | 0.346 | 0.252 | 0.265 | 0.245 | 0.27 | 0.311 | 0.385 | 0.344 | 0.31 | 0.343 | 0.418 | 0.207 | 0.403 | 0.258 | 0.278 | 0.934 | 0.45 | 0.353 | 0.255 | 0.241 |
| Calu-6 |  |  |  |  |  | 1.15 | 1.12 | 1.08 | 1.09 | 1.12 | 0.858 | 0.876 | 1.06 | 0.933 | 0.891 | 1.05 | 0.922 | 1.03 | 1.01 | 0.88 |
| ChaGo-K-1 | 0.625 | 0.516 | 0.515 | 0.585 | 0.469 |  |  |  |  |  |  |  |  |  |  |  |  |  |  |  |
| EBC-1 |  |  |  |  |  | 0.246 | 0.196 | 0.198 | 0.195 | 0.212 | 0.72 | 0.827 | 0.903 | 0.783 | 0.903 | 0.787 | 0.835 | 0.905 | 0.81 | 0.915 |
| EKVX | 0.565 | 0.509 | 0.438 | 0.149 | 0.231 | 0.191 | 0.18 | 0.188 | 0.208 | 0.198 | 0.702 | 0.768 | 0.421 | 0.171 | 0.134 | 0.713 | 0.704 | 0.46 | 0.187 | 0.156 |
| EMC-BAC-2 | 0.371 | 0.355 | 0.418 | 0.378 | 0.352 | 0.888 | 0.858 | 0.892 | 0.941 | 0.91 | 0.747 | 0.684 | 0.697 | 0.59 | 0.572 | 0.734 | 0.635 | 0.635 | 0.603 | 0.634 |
| EPLC-272H | 0.279 | 0.203 | 0.231 | 0.213 | 0.211 | 0.941 | 0.826 | 0.941 | 0.863 | 0.924 | 1.14 | 0.926 | 0.832 | 0.776 | 0.736 | 0.775 | 0.818 | 0.737 | 0.691 | 0.731 |
| H3255 | 0.239 | 0.231 | 0.214 | 0.209 | 0.208 | 0.244 | 0.227 | 0.242 | 0.215 | 0.215 | 0.197 | 0.124 | 0.149 | 0.123 | 0.138 | 0.209 | 0.135 | 0.168 | 0.123 | 0.123 |
| HARA | 0.365 | 0.228 | 0.163 | 0.234 | 0.293 | 0.727 | 0.668 | 0.608 | 0.688 | 0.888 | 0.481 | 0.803 | 0.238 | 0.209 | 0.26 | 0.45 | 0.652 | 0.397 | 0.313 | 0.397 |
| HCC-15 | 0.708 | 0.753 | 0.733 | 0.724 | 0.547 | 0.84 | 0.92 | 0.859 | 0.859 | 0.82 | 0.845 | 0.894 | 0.849 | 0.854 | 0.788 | 0.855 | 0.816 | 0.902 | 0.855 | 0.889 |
